Data taken from patent US20070225284A1, “Inhibitors of soluble adenylate cyclase” (priority 2006, published 2007).

What was measured:
[1] = target: soluble, sperm-specific adenylate cyclase (sAC) (Homo sapiens, UniProt Q96PN6); assay: sAC-Assay (HTRF cAMP detection); format: biochemical; conditions: read-out: IC50 (inhibition of the soluble adenylate cyclase)
Source text: In a suitable buffer system, the soluble, sperm-specific adenylate cyclase catalyzes the reaction of adenosine triphosphate (ATP) to cyclic adenosine monophosphate (cAMP) and pyrophosphate. Free cAMP that is generated in this way is then used in a competitive detection process, in which the binding of a europium kryptate (Eu[K])-labeled anti-cAMP antibody (anti cAMP-Eu[K]-AK) to a cAMP-molecule-labeled, modified allophycocyanine-1 molecule (cAMP-XL665) is prevented. In the absence of exogenic cAMP, after excitation at 335 nm, it results in a fluorescence resonance energy transfer (FRET) between the anti cAMP-Eu[K]-AK (FRET-donor) and the cAMP-XL665 molecule (FRET-acceptor). This process is quantified at different times (time-resolved) based on the emission of FRET-acceptor XL665 (665 nm and 620 nm). A signal drop (measured as a wave ratio; calculation formula: [(E665 nm/E620 nm)×10000]) can be attributed to the presence of cAMP and thus to the activity of sAC.
First, 1.5 μl of the test substance (in 30% DMSO), only 30% DMSO in the solvent controls, is introduced per recess in a 384-hole test plate (polystyrene; 384, NV). […]
After an additional incubation of 90 minutes at room temperature, the HTRF result is measured either on the Packard Discovery or with the RubiStar HTRF measuring device (Delay: 50 μs; Integration time: 400 μs).

[2] = statement on known sAC inhibitors; cited from earlier work

Sequence of soluble, sperm-specific adenylate cyclase (sAC) (Q96PN6 whole entry): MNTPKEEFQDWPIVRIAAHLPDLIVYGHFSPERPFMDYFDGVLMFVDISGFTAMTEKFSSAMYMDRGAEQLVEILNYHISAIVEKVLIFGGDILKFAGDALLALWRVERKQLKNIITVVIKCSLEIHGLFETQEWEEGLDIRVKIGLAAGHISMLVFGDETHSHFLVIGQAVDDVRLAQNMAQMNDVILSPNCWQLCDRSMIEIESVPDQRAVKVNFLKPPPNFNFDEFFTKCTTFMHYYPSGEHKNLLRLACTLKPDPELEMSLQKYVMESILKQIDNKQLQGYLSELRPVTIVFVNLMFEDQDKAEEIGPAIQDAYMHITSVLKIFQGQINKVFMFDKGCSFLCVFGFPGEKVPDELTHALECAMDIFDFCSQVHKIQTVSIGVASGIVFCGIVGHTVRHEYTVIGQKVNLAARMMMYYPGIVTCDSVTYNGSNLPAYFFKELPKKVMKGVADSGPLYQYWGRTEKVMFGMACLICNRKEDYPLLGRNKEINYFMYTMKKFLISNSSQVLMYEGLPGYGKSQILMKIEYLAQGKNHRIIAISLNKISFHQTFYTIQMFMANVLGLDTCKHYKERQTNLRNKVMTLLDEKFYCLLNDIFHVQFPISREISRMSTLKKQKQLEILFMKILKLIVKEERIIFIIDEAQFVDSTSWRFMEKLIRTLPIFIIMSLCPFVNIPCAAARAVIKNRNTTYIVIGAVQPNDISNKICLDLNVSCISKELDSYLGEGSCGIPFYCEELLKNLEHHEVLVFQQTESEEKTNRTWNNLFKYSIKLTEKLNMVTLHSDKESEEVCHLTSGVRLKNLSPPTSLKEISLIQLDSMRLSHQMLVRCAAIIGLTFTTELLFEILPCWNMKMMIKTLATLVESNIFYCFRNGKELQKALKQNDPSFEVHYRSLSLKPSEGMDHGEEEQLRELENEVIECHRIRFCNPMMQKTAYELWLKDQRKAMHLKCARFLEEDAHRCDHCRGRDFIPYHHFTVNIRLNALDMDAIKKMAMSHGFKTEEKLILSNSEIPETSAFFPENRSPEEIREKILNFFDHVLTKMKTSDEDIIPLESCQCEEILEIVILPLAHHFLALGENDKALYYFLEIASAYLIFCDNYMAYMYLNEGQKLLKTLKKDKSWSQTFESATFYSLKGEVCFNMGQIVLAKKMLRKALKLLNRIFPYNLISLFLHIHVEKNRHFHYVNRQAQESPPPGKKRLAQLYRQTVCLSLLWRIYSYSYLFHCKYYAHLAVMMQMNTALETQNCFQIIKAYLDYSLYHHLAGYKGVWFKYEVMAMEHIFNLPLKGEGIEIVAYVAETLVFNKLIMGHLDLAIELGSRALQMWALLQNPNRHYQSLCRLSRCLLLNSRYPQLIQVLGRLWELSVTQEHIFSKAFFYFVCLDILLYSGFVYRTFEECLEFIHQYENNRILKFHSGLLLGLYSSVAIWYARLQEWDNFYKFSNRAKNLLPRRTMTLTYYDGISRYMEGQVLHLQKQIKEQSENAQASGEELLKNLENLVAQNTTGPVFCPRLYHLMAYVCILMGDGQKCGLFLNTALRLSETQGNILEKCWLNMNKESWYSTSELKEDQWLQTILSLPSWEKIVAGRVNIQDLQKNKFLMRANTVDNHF

Row | IC50 [1] | Structure (SMILES) | toxicity [2]
1 | 2600 nM | CN(c1ccc2[nH]c(C(=O)NCCN3CCOCC3)c(-c3ccccc3)c2c1)S(=O)(=O)c1ccc(C(C)(C)C)cc1 | 
2 | 1300 nM | CC(O)CNC(=O)c1[nH]c2ccc(N(C)S(=O)(=O)c3ccc(C(C)(C)C)cc3)cc2c1-c1ccccc1 (racemic) [Example 4, (±)-5-[(4-tert-Butyl-phenylsulfonyl)-methyl-amino]-3-phenyl-1H-indole-2-carboxylic acid-(2-hydroxy-propyl)-amide] | 
3 |  | Cc1cc2c(C(C)C)c(O)c(O)c(C=O)c2c(O)c1-c1c(C)cc2c(C(C)C)c(O)c(O)c(C=O)c2c1O [gossypol] | inherently toxic
